Data set [1] is described as follows: Particle size distribution (Malvern MASTERSIZER 2000). The class given is physicochemical. The conditions noted are these: sterilized drug substance from Shouguang Fukang Pharma Co.; average of three measurements. The method, then: Particle size distribution may be measured, for example, using a Malvern MASTERSIZER 2000 instrument. After 24 hours storage, a particle size distribution (PSD) was performed using a Malvern MASTERSIZER 2000. The measuring range of the instrument is 0.02-2000 μm, with refractive index dispersant 1.375—hexanes, obscuration range 5-20%, sample/background measurement time=1, 5000 sample/background measurement snaps, and manual stirring speed 2000 rpm.

Data set [2] in a line: Pharmacokinetics after multiple intramuscular doses to horses. The method, then: Eighteen adult horses were randomized into three equal treatment groups and assigned one of three doses: 2 mg/kg (1×), 6 mg/kg (3×), or 10 mg/kg (5×). Doses were administered intramuscularly. Each horse received the assigned dose three times, seven days apart. Blood samples were collected at 1, 2, 4, 6, 8, 12, 24, 36, 48, 72, 96, 120, 144 hrs after each dosing, then every 48 hours until Day 28. Esomeprazole was quantified by LC-MS/MS. Data were subjected to noncompartmental analysis.

Entries after “also recorded” stand apart in the source; their conditions may differ.

`COc1ccc2[n-]c([S@@+]([O-])Cc3ncc(C)c(OC)c3C)nc2c1.COc1ccc2[n-]c([S@@+]([O-])Cc3ncc(C)c(OC)c3C)nc2c1.O.O.[Mg+2]` [esomeprazole magnesium dihydrate] gave a Median particle size in data set [1] of 2.01 μm.
On the same count and under the same terms, with `COc1ccc2nc([S@@+]([O-])Cc3ncc(C)c(OC)c3C)[nH]c2c1` [esomeprazole sodium] the figure was 18.84 μm.
Take `COc1ccc2nc([S@@+]([O-])Cc3ncc(C)c(OC)c3C)[nH]c2c1` [esomeprazole]: the “Dose normalization of Cmax and area under the curve (kinetic linearity)” value in data set [2] (across 2, 6 and 10 mg/kg intramuscular) is listed as “linear pharmacokinetics; also recorded: Linear kinetic properties were observed”. For the same compound, in data set [2] (after the final dose in the 5× group (10 mg/kg intramuscular)), the “Time for which drug was detectable” value amounted to 96 ± 26.29 h. This compound also gave a Mean half-life in data set [2] (horse, in vivo, im, 10 mg/kg) of 12 to 24 h. In addition, the half-life in data set [2] (horse, in vivo, im, 10 mg/kg, Mean half-life) was 11.6 to 24.5 h. Besides, in data set [2] (in vivo), the Tolerability result is “well tolerated”. Also, in data set [2] (intramuscular, horses), the “Absorption from the injection site” value is on record as “rapidly absorbed”. Further, the Injection site reaction result in data set [2] (one horse in the 3× group (6 mg/kg intramuscular)) is on record as “A single mild, self-resolving, injection site reaction”.

The values are drawn from patent publication US20220354836A1, “Equine Esomeprazole Formulations and Methods of Use” (priority 2019, published 2022).
